For one assay, the system named is IL-5. In words: Cytokine release after LPS induction on human whole blood: IL-5. Format: cell-based. On the procedure: Aim of this in vitro method is to assess compounds effects on release of a panel of cytokines from whole blood following lipopolysaccharide (LPS) induced inflammatory reaction. Whole blood was incubated with compounds for 1 h prior to LPS induction. Cytokine levels in blood were measured using a multiplex FACS-based panel.
IC50 values determined for the tested compounds expressed in microM [μM] and the values for the inhibition of cytokines were listed for each compound.
Effect on cytokines release after LPS induction was performed on the compounds dissolved in DMSO or H2O to reach 10-fold concentrated stock solutions and dissolved in culture media.
Test system: Whole blood was removed from a single donor (into lithium heparin coated tubes; BD Vacutainer; 367886) and diluted 1:5 with RPMI 1640 (Thermo Fisher, 61870036). Within 30 minutes of sampling, blood was incubated with compounds for 1 h prior to LPS stimulation (O111:B4—Sigma L4391; 10 ng/ml final concentration). Stimulation continued under standard cell culture conditions (37° C. with 5% CO2) overnight (18 h), after which plates were centrifuged and supernatant removed and frozen at −80° C. until used for analyses.
Dilution of test compounds: 10×concentrated solutions (concerning to the final assay concentrations) of each test compound were prepared with the appropriate solvent (in DMSO or in water). These 10× compound solutions (10 μl) were then added to 90 μl pre-diluted whole blood (whole blood: RPMI1640, 1:5) resulting in the final assay concentration.
Test method: Diluted whole blood (80 μl) was pre-incubated with compounds (10 μl) to give final assay concentrations of 100, 30, 10, 3, 1, 0.3 and 0.1×10^−6M. Blood was incubated at 37° C. with 5% CO2 for 1 h. LPS was diluted in cell culture media to a concentration of […]; 10 μl was added to the whole blood to give a final concentration of 10 ng/ml. Plates were incubated at 37° C. for 18 h. Plates were centrifuged at 3,000 RPM for 5 minutes at 4° C. and supernatant removed and frozen at −80° C. until FACS analysis was carried out.
Cytokine release was measured using a custom multiplex system (ELISA Genie) according to manufacturers instructions. Prepared samples were run on an Attune NxT flow cytometer (Thermo Fisher).
Quantification of cytokine release inhibition: known concentration standards were run as part of the cytokine panel to allow quantification of each cytokine concentration in each sample. This was carried out using FCAP Array v3.0 software.
Results: The dose response relationship on cytokine release following LPS induction of inflammatory response in whole blood was assessed for all compounds. IC50 values were determined for each compound for a panel of cytokines (GM-CSF, IFN-gamma, IL-1beta, IL-2, IL-4, IL-5, IL-6, IL-8, IL-9, IL-10, IL-12p40, IL-13, IL-17A, IL-17F, IL-18, IL-21, IL-22, IL-33, TGF-beta, TNF-alpha, TNF-beta).

In assay [1] the test system is STZ-induced diabetes model. As to the kind of experiment: STZ-induced diabetic nephropathy, kidney disease and retinopathy model (28 days treatment). As to conditions: for Mean day 0 blood glucose Concentration (mmol/L) (SD) / Mean day 28 blood glucose Concentration (mmol/L) (SD) / Blood BUN / Disease Score (kidney, H&E) / Eye area (retinal flatmount area covered by vasculature) / Trichrome staining (Kidney fibrosis) / Blood CRP / Blood IL-6 / Blood TGF-beta / Blood TNF-alpha / Urine albumine creatinine ratio (ALB:CRE): 15 mg/kg IV, Captopril 50 mg/kg PO; for Mean day 28 blood glucose Concentration (mmol/L) (SD) / Blood urea nitrogen levels: day 28; for Blood urea nitrogen levels: vs induced vehicle controls; for Blood BUN / Disease Score (kidney, H&E) / Eye area (retinal flatmount area covered by vasculature) / Trichrome staining (Kidney fibrosis) / Blood CRP / Blood IL-6 / Blood TGF-beta / Blood TNF-alpha / Urine albumine creatinine ratio (ALB:CRE): day 28 of treatment (week 9); for Blood CRP / Blood IL-6 / Blood TGF-beta / Blood TNF-alpha: serum; for Urine albumine creatinine ratio (ALB:CRE): urine pooled per group.
Experimental: A total of 70 female CD-1 mice aged 5-7 weeks weighing approximately 25-30 g were used for the study. These were purchased from Charles River, UK and had 7 days acclimatization period. Animals were housed in IVC cages (up to 5 per cage) with individual mice identified by tail mark. All animals were allowed free access to a standard certified commercial diet and sanitised water during the study. The holding room was maintained under standard conditions: 18-24° C., 55-70% humidity and a 12 h light/dark cycle.
Mice were starved for 6 hours prior to injection. One week after completion of induction glucose levels were monitored and mice with levels less than 15 mml/L (280 mg/gL) were removed from the study as they had not developed the ideal severity of diabetes. Glucose levels were be monitored weekly and 5 weeks after STZ induction biochemical assessment of renal injury was carried out by measuring urine albumin and creatinine levels and confirming they were within the desired range. After successful completion of this stage animals were assigned to treatment groups.
Treatment continued for 4 weeks (28 days) with weekly measurement of blood glucose and urine albumin/creatinine. The study schedule is detailed below looking at weekly (week 5 to 9) blood glucose levels, urine albumin creatinie ratios, and terminal (week 9) blood chemistry and cytokines, kidney histology and eye-retinal leakage.
Urine Albumin: Creatinine (ALB: CRE): Urine was collected weekly and pooled for each treatment group.
ELISAs: At the end of the treatment period blood was collected and processed to serum. Serum levels of CRP, TGF-β, IL-6 and TNF-α were quantified using commercially available ELISA kits, results are shown in Table 56.

The mark [2] stands for this setting: Homo sapiens, LPS 10 ng/ml, 18 h, read-out: Whole Blood: IL-5 IC50.
Where [3] appears, read: human whole blood, inhibition of LPS induced inflammation, read-out: IC50 IL-5.

Where two headings read alike, the source gives them in different places.

Usually IC50 stands for the midpoint of a concentration-inhibition curve.

Consider `O=C(O)c1cc(NC(=O)c2cc(O)c(C(=O)O)cc2O)cc(NC(=O)c2cc(O)c(C(=O)O)cc2O)c1` [Ib-010a, 3,5-bis(2,5-dihydroxy-4-carboxybenzoylamino)benzoic acid], for which the IC50 with IL-5 (setting [2]) was above 100 µM. In addition, the IC50 in the assay with IL-5 (setting [3]) stood at 100 µM. In assay [1], the “Mean day 0 blood glucose Concentration (mmol/L) (SD)” value is 25.1 (6.1) mmol/L, the “Mean day 28 blood glucose Concentration (mmol/L) (SD)” value was 31.1 (3.4) mmol/L, the “Blood urea nitrogen levels” value is recorded as “significantly lower than induced vehicle controls” and the “Blood BUN” value is on record as 20.5 ± 3.4. Also, in assay [1], the “Disease Score (kidney, H&E)” value was determined as 6 ± 1; the “Eye area (retinal flatmount area covered by vasculature)” value (“Eye area” for short) came out at 11.8 ± 1; the “Trichrome staining (Kidney fibrosis)” value was found to be 1.97 ± 0.8; the “Blood CRP” value was determined as 5915 ± 1352. In assay [1], the “Blood IL-6” value is 102.72 ± 25.4, the “Blood TGF-beta” value was 13.17 ± 3.11, the “Blood TNF-alpha” value was 395.6 ± 46.7 and the “Urine albumine creatinine ratio (ALB:CRE)” value stood at 24.28. Besides, the “Urine ALB:CREA” value in assay [1] (treatment day 28) is listed as “reduced”.

Take `CC(=O)N(Cc1cc(O)c(C(=O)O)cc1O)Cc1cc(O)c(C(=O)O)cc1O` [IIIc-057a, N,N-Bis(4-carboxy-2,5-dihydroxyphenylmethyl)acetamide]: the IC50 was above 100 µM with IL-5 (setting [2]) and 100 µM in the assay on IL-5 (setting [3]).

Regarding `O=C(Nc1ccccc1-c1nnn[nH]1)c1cc(O)c(C(=O)Nc2ccccc2-c2nnn[nH]2)cc1O` [Ic-001aTz2, N1,N4-bis(2-(1H-tetrazol-5-yl)phenyl)-2,5-dihydroxyterephthalamide], the IC50 with IL-5 (setting [2]) was above 100 µM.

Regarding `O=C(O)c1cc(O)cc(CSCc2cc(O)cc(C(=O)O)c2O)c1O` [IVc-058a, 3-((2,5-Dihydroxy-3-carboxyphenyl)methylthiomethyl)-2,5-dihydroxybenzoic acid], the IC50 in the assay on IL-5 (setting [2]) is above 100 µM; with IL-5 (setting [3]), 100 µM.

Consider `O=C(O)c1cc(O)c(C(=O)Nc2ccccc2C(=O)O)cc1O` [Ia-001a, 4-(2-carboxyphenylaminocarbonyl)-2,5-dihydroxybenzoic acid], for which, in the assay on IL-5 (setting [2]), the IC50 is above 100 µM. Also, the IC50 in the assay with IL-5 (setting [3]) worked out at 100 µM. For the same compound, the “Serum CRP” value in assay [1] (28 days of treatment, vs vehicle induced controls) was “significantly reduced”. The “Serum TNF-α” value in assay [1] (28 days, p<0.05) is “significantly lower than vehicle induced controls”. In assay [1], the “Mean day 0 blood glucose Concentration (mmol/L) (SD)” value was 25.7 (6.3) mmol/L; the “Mean day 28 blood glucose Concentration (mmol/L) (SD)” value is on record as 31.6 (3.8) mmol/L; the “Blood BUN” value is 25.1 ± 3.1; the “Disease Score (kidney, H&E)” value amounted to 7 ± 1. In addition, in assay [1], the “Eye area” value came to 9.9 ± 1.9, the “Trichrome staining (Kidney fibrosis)” value was found to be 1.87 ± 0.65, the “Blood CRP” value was found to be 4759 ± 1181 and the “Blood IL-6” value was determined as 114.16 ± 29.96. For the same compound, in assay [1], the “Blood TGF-beta” value was determined as 15.54 ± 2.8, the “Blood TNF-alpha” value stood at 342.3 ± 15.6 and the “Urine albumine creatinine ratio (ALB:CRE)” value turned out to be 35.68.

As for `O=C(O)Cc1cc(O)c(C(=O)Nc2ccccc2-c2nnn[nH]2)cc1O` [IIIa-001aTz], the IC50 was above 100 µM with IL-5 (setting [2]) and 100 µM in the assay with IL-5 (setting [3]).

As for `O=C(O)c1cc(NC(=O)c2cc(O)c(C(=O)Nc3ccc(O)c(C(=O)O)c3)cc2O)ccc1O` [Ic-007a, 5-(4-(3-carboxy-4-hydroxyphenylaminocarbonyl)-2,5-dihydroxybenzamido)-2-hydroxy benzoic acid], the IC50 with IL-5 (setting [2]) was above 100 µM. The IC50 in the assay with IL-5 (setting [3]) came to 100 µM. In addition, the Retina vasculature coverage result in assay [1] (28 days, retinal flat mounts, FITC-dextran) is given as “significantly decreased”. Also, in assay [1], the “Blood urea nitrogen levels” value was “significantly lower than induced vehicle controls”; the “Blood BUN” value amounted to 21.7 ± 3.0; the “Disease Score (kidney, H&E)” value is on record as 7 ± 1; the “Eye area” value is listed as 9.1 ± 1.1. Besides, in assay [1], the “Trichrome staining (Kidney fibrosis)” value came to 2.23 ± 0.61, the “Blood CRP” value was found to be 5707 ± 892, the “Blood IL-6” value amounted to 109.27 ± 19.03 and the “Blood TGF-beta” value came out at 16.66 ± 2.11. In addition, the “Blood TNF-alpha” value in assay [1] is reported as 326.8 ± 63^.

In the case of `O=C(O)c1ccccc1CNC(=O)c1cc(O)cc(C(=O)O)c1O` [IIa-053a, 3-(2-Carboxyphenylmethylaminocarbonyl)-2,5-dihydroxybenzoic acid], the half-maximal inhibitory concentration (IC50) in the assay with IL-5 (setting [2]) was above 100 µM; in the assay with IL-5 (setting [3]), 100 µM.

In the case of `COC(=O)c1cc(OC(C)=O)cc(CS(=O)(=O)Cc2cc(OC(C)=O)cc(C(=O)OC)c2OC(C)=O)c1OC(C)=O` [IVc-059a-E2-A4], the figures for the IC50 with IL-5 (setting [2]) and in the assay on IL-5 (setting [3]) were above 100 µM and 100 µM, respectively.

In the case of `O=C(O)c1cc(NC(=O)c2cc(O)cc(C(=O)Nc3ccc(O)c(C(=O)O)c3)c2O)ccc1O` [IIc-007a, 5-(3-(3-carboxy-4-hydroxyphenylaminocarbonyl)-2,5-dihydroxybenzamido)-2-hydroxy benzoic acid], the IC50 in the assay on IL-5 (setting [2]) is above 100 µM; with IL-5 (setting [3]) it was 100 µM.

As for `O=C(O)c1cc(O)c(C(=O)Nc2ccc(-c3nnn[nH]3)cc2)cc1O` [Ia-003a-Tz, 4-(4-(1H-tetrazol-5-yl)phenyl-aminocarbonyl)-2,5-dihydroxybenzoic acid], the concentration for half-maximal inhibition (IC50) in the assay with IL-5 (setting [2]) is above 100 µM; in the assay on IL-5 (setting [3]) it was 100 µM.

`O=C(O)c1cc(O)c(C(=O)Nc2ccccc2S(=O)(=O)O)cc1O` [Ia-001c, 2,5-dihydroxy-4-(2-sulfophenylaminocarbonyl)benzoic acid]: the IC50 in the assay on IL-5 (setting [2]) was above 100 µM; in the assay with IL-5 (setting [3]) it was 100 µM.

As to `O=C(O)c1cc(O)ccc1NC(=O)c1cc(O)cc(C(=O)Nc2ccc(O)cc2C(=O)O)c1O` [IIc-009a, 2-(3-(2-carboxy-4-hydroxyphenylaminocarbonyl)-2,5-dihydroxybenzamido)-5-hydroxyl benzoic acid], the IC50 with IL-5 (setting [2]) was above 100 µM; with IL-5 (setting [3]), 100 µM.

In the case of `O=C(O)Cc1cc(O)c(C(=O)Nc2c(C(=O)O)cccc2C(=O)O)cc1O` [IIIa-013a, 2-(4-(carboxymethyl)-2,5-dihydroxybenzamido)isophthalic acid], the IC50 in the assay with IL-5 (setting [2]) was above 100 µM; with IL-5 (setting [3]), 100 µM.

As to `CCOC(=O)c1cc(NC(=O)c2cc(O)c(C(=O)OCC)cc2O)cc(NC(=O)c2cc(O)c(C(=O)OCC)cc2O)c1` [Ib-010a-E3, ethyl 3,5-bis(2,5-dihydroxy-4-ethoxycarbonylbenzoylamino)benzoate], the half-inhibitory concentration (IC50) in the assay with IL-5 (setting [2]) is above 100 µM; in the assay on IL-5 (setting [3]) it was 100 µM.

Regarding `O=C(O)c1cc(NC(=O)c2cc(O)c(C(=O)O)cc2O)cc(C(=O)O)c1` [Ia-015a, 5-(4-carboxy-2,5-dihydroxybenzamido)isophthalic acid], the IC50 with IL-5 (setting [2]) is above 100 µM; in the assay with IL-5 (setting [3]), 100 µM.

The values above are taken from patent publication US20230150951A1, “2,5- OR 2,6-DISUBSTITUTED HYDROQUINONE DERIVATIVES WITH AT LEAST ONE CARBOXY, SULFO OR AMIDO GROUP USEFUL AS MEDICAMENTS” (OM PHARMA SA, priority 2020, published 2023).
